How the values were obtained:
Type in all cases: cell-based
parental Ba/F3 cell line = experiment: Growth inhibition (GI50) of the parental Ba/F3 cell line (not introduced with EGFR variants), Celltiter glo; conditions: Mus musculus, BaF3, 72 h, parental Ba/F3 cells
Protocol: (§1) The parental Ba/F3 cell line is a population of cells that are not introduced with EGFR variants. Specifically, 100 μl of a cell line expressing each variant was plated in a 96-well plate at a density of 100,000 cells/ml. 10-point, 4-fold serial dilutions of each compound were prepared, starting at 2 mM. After 4 h, 0.5 μl of the compound (0.5% DMSO) was added, followed by incubation at 37° C. and 5% CO2 for 72 h. After incubation, the number of viable cells was measured using a Celltiter glo assay kit (Promega) and the GI50 of the compound was determined. The term “GI50” refers to the molar concentration (μM) of the compound required for 50% growth inhibition of cells.

[1] = tested on: Ba/F3 cells expressing del19/T790M/C797S (EGFR-DTC); experiment: Growth inhibition (GI50) of Ba/F3 cells expressing del19/T790M/C797S (EGFR-DTC), Celltiter glo; conditions: Mus musculus, BaF3, 72 h
Protocol: (§2) In this experimental example, a determination was made as to whether the compounds prepared in Examples 1-283 have the ability to inhibit the growth of Ba/F3 cells expressing EGFR-wt, del19/T790M/C797S (EGFR-DTC), L858R/T790M/C797S (EGFR-LTC), del19/T790M (EGFR-DT), and L858R/T790M (EGFR-LT) variants.
as §1

[2] = tested on: Ba/F3 cells expressing EGFR-wt; experiment: Growth inhibition (GI50) of Ba/F3 cells expressing EGFR-wt, Celltiter glo; conditions: Mus musculus, BaF3, 72 h
Protocol: as §2, §1

[3] = tested on: Ba/F3 cells expressing L858R/T790M/C797S (EGFR-LTC); experiment: Growth inhibition (GI50) of Ba/F3 cells expressing L858R/T790M/C797S (EGFR-LTC), Celltiter glo; conditions: Mus musculus, BaF3, 72 h
Protocol: as §2, §1

Row | SMILES | GI50 (parental Ba/F3 cell line) | GI50 [1] | GI50 [2] | GI50 [3]
1 | CCN1CCN(c2ccc(Nc3ncc(Cl)c(Nc4ccccc4NS(C)(=O)=O)n3)c(OC)n2)CC1 [Example 1] | 2000 to 10000 nM | 100 to 500 nM | 500 to 2000 nM | –
2 | COc1cc(N2CCC(N3CCN(C)CC3)CC2)c(C)cc1Nc1ncc(Cl)c(Nc2ccccc2NS(C)(=O)=O)n1 [Example 2, N-(2-((5-chloro-2-((2-methoxy-5-methyl-4-(4-(4-methylpiperazin-1-yl)piperidin-1-yl)phenyl)amino)pyrimidin-4-yl)amino)phenyl)methanesulfonamide] | 500 to 2000 nM | 1 to 25 nM | 100 to 500 nM | –
3 | CN1CCN(C2CCN(c3ccc(Nc4ncc(Cl)c(Nc5ccccc5NS(C)(=O)=O)n4)cn3)CC2)CC1 [Example 3, N-(2-((5-chloro-2-((6-(4-(4-methylpiperazin-1-yl)piperidin-1-yl)pyridin-3-yl)amino)pyrimidin-4-yl)amino)phenyl)methanesulfonamide] | 500 to 2000 nM | 100 to 500 nM | 500 to 2000 nM | –
4 | CN1CCN(C2CCN(c3ccc(Nc4ncc(Cl)c(Nc5ccccc5NS(C)(=O)=O)n4)c(OCC(F)(F)F)n3)CC2)CC1 [Example 4, N-(2-((5-chloro-2-((6-(4-(4-methylpiperazin-1-yl)piperidin-1-yl)-2-(2,2,2-trifluoroethoxy)pyridin-3-yl)amino)pyrimidin-4-yl)amino)phenyl)methanesulfonamide] | 2000 to 10000 nM | 500 to 2000 nM | 2000 to 10000 nM | –
5 | CN1CCN(C2CCN(c3ccc(Nc4ncc(Cl)c(Nc5ccccc5NS(C)(=O)=O)n4)cc3F)CC2)CC1 [Example 5, N-(2-((5-chloro-2-((3-fluoro-4-(4-(4-methylpiperazin-1-yl)piperidin-1-yl)phenyl)amino)pyrimidin-4-yl)amino)phenyl)methanesulfonamide] | 25 to 100 nM | 1 to 25 nM | 100 to 500 nM | –
6 | COc1cc(N2CCC(N3CCN(C)CC3)CC2)c(Cl)cc1Nc1ncc(Cl)c(Nc2ccccc2NS(C)(=O)=O)n1 [Example 7, N-(2-((5-chloro-2-((5-chloro-2-methoxy-4-(4-(4-methylpiperazin-1-yl)piperidin-1-yl)phenyl)amino)pyrimidin-4-yl)amino)phenyl)methanesulfonamide] | 500 to 2000 nM | 100 to 500 nM | 100 to 500 nM | 100 to 500 nM
7 | COc1nc(N2CCC(N(C)C)C2)ccc1NC1=[N+]=C(N(c2ccccc2NS(C)(=O)=O)S(C)(=O)=O)C(Cl)=CN1 (centres unmarked) [Example 8, N-(5-chloro-2-((6-(3-(dimethylamino)pyrrolidin-1-yl)-2-methoxypyridin-3-yl)amino)pyrimidin-4-yl)-N-(2-(methylsulfonamido)phenyl)methanesulfonamide] | 2000 to 10000 nM | 100 to 500 nM | 2000 to 10000 nM | 500 to 2000 nM
8 | COc1cc(N2CCC(N3CCN(C)CC3)CC2)c(C)cc1Nc1ncc(Cl)c(N(c2ccccc2NS(C)(=O)=O)S(C)(=O)=O)n1 [Example 9, N-(5-chloro-2-((2-methoxy-5-methyl-4-(4-(4-methylpiperazin-1-yl)piperidin-1-yl)phenyl)amino)pyrimidin-4-yl)-N-(2-(methylsulfonamido)phenyl)methanesulfonamide] | 500 to 2000 nM | 100 to 500 nM | 100 to 500 nM | 25 to 100 nM
9 | COc1nc(N2CCC(N3CCN(C)CC3)CC2)ccc1Nc1ncc(Cl)c(N(c2ccccc2NS(C)(=O)=O)S(C)(=O)=O)n1 [Example 10, N-(5-chloro-2-((2-methoxy-6-(4-(4-methylpiperazin-1-yl)piperidin-1-yl)pyridin-3-yl)amino)pyrimidin-4-yl)-N-(2-(methylsulfonamido)phenyl)methanesulfonamide] | 2000 to 10000 nM | 500 to 2000 nM | 500 to 2000 nM | 500 to 2000 nM
10 | COc1cc(N2CCC(N3CCN(C)CC3)CC2)c(C)cc1Nc1ncc(Cl)c(N(C)c2ccccc2N(C)S(C)(=O)=O)n1 [Example 11] | 500 to 2000 nM | 500 to 2000 nM | 2000 to 10000 nM | 500 to 2000 nM
11 | COc1cc(N2CCC(N3CCN(C)CC3)CC2)c(C)cc1Nc1ncc(Cl)c(Nc2ccc(F)cc2NS(C)(=O)=O)n1 [Example 12] | 2000 to 10000 nM | 25 to 100 nM | 100 to 500 nM | –
12 | CS(=O)(=O)Nc1cc(F)ccc1Nc1nc(Nc2ccc(N3CCOCC3)nc2)ncc1Cl [Example 13] | 500 to 2000 nM | 100 to 500 nM | 500 to 2000 nM | –
13 | CN1CCN(C2CCN(c3ccc(Nc4ncc(Cl)c(Nc5ccc(F)cc5NS(C)(=O)=O)n4)cn3)CC2)CC1 [Example 14] | 2000 to 10000 nM | 2000 to 10000 nM | > 10000 nM | –
14 | CN1CCN(C2CCN(c3ncc(Nc4ncc(Cl)c(Nc5ccc(F)cc5NS(C)(=O)=O)n4)cc3F)CC2)CC1 [Example 16] | 500 to 2000 nM | 500 to 2000 nM | 2000 to 10000 nM | –
15 | COc1nc(N2CCC(N3CCN(C)CC3)CC2)ccc1Nc1ncc(Cl)c(Nc2ccc(F)cc2NS(C)(=O)=O)n1 [Example 17, N-(2-((5-chloro-2-((2-methoxy-6-(4-(4-methylpiperazin-1-yl)piperidin-1-yl)pyridin-3-yl)amino)pyrimidin-4-yl)amino)-5-fluorophenyl)methanesulfonamide] | 2000 to 10000 nM | 500 to 2000 nM | 2000 to 10000 nM | –
16 | COc1cc(N2CCC(N3CCN(C)CC3)CC2)c(C)cc1Nc1ncc(Cl)c(Nc2ccccc2C(F)(F)F)n1 [Example 46] | 2000 to 10000 nM | 2000 to 10000 nM | 2000 to 10000 nM | –
17 | COc1cc(N2CCC(N3CCN(C)CC3)CC2)ccc1Nc1ncc(Cl)c(Nc2ccccc2C(F)(F)F)n1 [Example 47] | 2000 to 10000 nM | 500 to 2000 nM | 2000 to 10000 nM | –
18 | CCN1CCN(c2ccc(Nc3ncc(Cl)c(Nc4ccccc4C(F)(F)F)n3)cc2)CC1 [Example 48] | 2000 to 10000 nM | 500 to 2000 nM | 2000 to 10000 nM | –
19 | FC(F)(F)c1ccccc1Nc1nc(Nc2ccc(N3CCOCC3)nc2)ncc1Cl [Example 49] | 2000 to 10000 nM | 500 to 2000 nM | 2000 to 10000 nM | –
20 | CNS(=O)(=O)c1ccccc1Nc1nc(Nc2cc(C)c(N3CCC(N4CCN(C)CC4)CC3)cc2OC)ncc1Cl [Example 50, 2-((5-chloro-2-((2-methoxy-5-methyl-4-(4-(4-methylpiperazin-1-yl)piperidin-1-yl)phenyl)amino)pyrimidin-4-yl)amino)-N-methylbenzenesulfonamide] | 500 to 2000 nM | 100 to 500 nM | 500 to 2000 nM | –
21 | CNS(=O)(=O)c1ccccc1Nc1nc(Nc2ccc(N3CCC(N4CCN(C)CC4)CC3)cc2OC)ncc1Cl [Example 51, 2-((5-chloro-2-((2-methoxy-4-(4-(4-methylpiperazin-1-yl)piperidin-1-yl)phenyl)amino)pyrimidin-4-yl)amino)-N-methylbenzenesulfonamide] | 2000 to 10000 nM | 100 to 500 nM | 2000 to 10000 nM | –
22 | CNS(=O)(=O)c1ccccc1Nc1nc(Nc2ccc(N3CCC(N4CCN(C)CC4)CC3)nc2)ncc1Cl [Example 52, 2-((5-chloro-2-((6-(4-(4-methylpiperazin-1-yl)piperidin-1-yl)pyridin-3-yl)amino)pyrimidin-4-yl)amino)-N-methylbenzenesulfonamide] | 100 to 500 nM | 25 to 100 nM | 100 to 500 nM | –
23 | CNS(=O)(=O)c1ccccc1Nc1nc(Nc2ccc(N3CCOCC3)nc2)ncc1Cl [Example 53, 2-((5-chloro-2-((6-morpholinopyridin-3-yl)amino)pyrimidin-4-yl)amino)-N-methylbenzenesulfonamide] | 100 to 500 nM | 100 to 500 nM | 100 to 500 nM | –
24 | CCN1CCN(c2ccc(Nc3ncc(Cl)c(Nc4ccccc4S(=O)(=O)NC)n3)c(OC)n2)CC1 [Example 54, 2-((5-chloro-2-((6-(4-ethylpiperazin-1-yl)-2-methoxypyridin-3-yl)amino)pyrimidin-4-yl)amino)-N-methylbenzenesulfonamide] | 2000 to 10000 nM | 2000 to 10000 nM | 100 to 500 nM | –
25 | CNS(=O)(=O)c1ccccc1Nc1nc(Nc2ccc(N3CCC(N4CCN(C)CC4)CC3)nc2OC)ncc1Cl [Example 55, 2-((5-chloro-2-((2-methoxy-6-(4-(4-methylpiperazin-1-yl)piperidin-1-yl)pyridin-3-yl)amino)pyrimidin-4-yl)amino)-N-methylbenzenesulfonamide] | 100 to 500 nM | 500 to 2000 nM | 500 to 2000 nM | –
26 | COc1cc(N2CCC(N3CCN(C)CC3)CC2)c(C)cc1Nc1ncc(Cl)c(Nc2ccccc2S(=O)(=O)NC2CC2)n1 [Example 59, 2-((5-chloro-2-((2-methoxy-5-methyl-4-(4-(4-methylpiperazin-1-yl)piperidin-1-yl)phenyl)amino)pyrimidin-4-yl)amino)-N-cyclopropylbenzenesulfonamide] | 500 to 2000 nM | 500 to 2000 nM | 500 to 2000 nM | –
27 | CN1CCN(C2CCN(c3ccc(Nc4ncc(Cl)c(Nc5ccccc5S(=O)(=O)NC5CC5)n4)cc3F)CC2)CC1 [Example 60, 2-((5-chloro-2-((3-fluoro-4-(4-(4-methylpiperazin-1-yl)piperidin-1-yl)phenyl)amino)pyrimidin-4-yl)amino)-N-cyclopropylbenzenesulfonamide] | 100 to 500 nM | 25 to 100 nM | 100 to 500 nM | –
28 | COc1nc(N2CCC(N3CCN(C)CC3)CC2)ccc1Nc1ncc(Cl)c(Nc2ccccc2S(=O)(=O)NC2CC2)n1 [Example 61] | 500 to 2000 nM | 2000 to 10000 nM | 2000 to 10000 nM | –

Source: patent US20240228458A1, “PYRIMIDINE DERIVATIVE HAVING PROTEIN KINASE INHIBITORY ACTIVITY, AND THERAPEUTIC PHARMACEUTICAL COMPOSITION COMPRISING SAME” (THERAPEX CO., LTD., priority 2021, published 2024)
